In PubChem BioAssay AID1963827 (Molecular Pharmacology Branch, DTP, NCI, 2024):
Several values for one entry are separate records, joined by “and”; a condition that tells them apart may be missing. Equal entries are not always repeated.

Test system: 994946-033-R-J1-PDC complex spheroid viability
Experiment: Anticancer human tumor 994946-033-R-J1-PDC patient-derived melanoma cell line growth inhibition [POLQ]
Conditions: for viability, T/C: stronger effect = lower value
Protocol: Multicellular complex tumor spheroid response to Polymerase (POL) inhibitors (novobiocin, ART-558, RP6685) in combination with a variety of drugs and investigational agents in selected tumor cell lines
The POL inhibitors (novobiocin, ART-558, and RP6685) were evaluated both individually and in combination with standard of care and investigational anticancer small molecules within a complex spheroid model of solid tumors. . Complex spheroids include a stromal component modeled by human endothelial cells (HUVEC) and fibroblasts modeled by human mesenchymal stem cells (MSCs). The concentration ranges selected for each drug and investigational agent were based upon clinically achievable concentrations if the clinical Cmax of the agent was known.
Compounds. The drugs and investigational agents: novobiocin (NSC847541), ART-558 (NSC835418), RP-6685 (NSC848927), peposertib (NSC802822), ceralasertib (NSC780249), elimusertib (NSC800525), camonsertib (NSC841442), AZD-1390 (NSC803789), olaparib (NSC753686), talazoparib (NSC767125), rucaparib (NSC756644), sotorasib (NSC818433), MRTX-1133 (NSC836407), SN-38 (NSC673596), topotecan (NSC609699), epotoside (NSC141540), doxorubicin (NSC123127), gemcitabine (NSC613327), 5-fluorouracil (NSC19893), paclitaxel (NSC125973), vemurafenib (NSC761431), MSA-2 (NSC828583), SN-011 (NSC837082), adavosertib (NSC754352), prexasertib (NSC758257), carboplatin (NSC241240) and oxaliplatin (NSC266046), were obtained from the National Cancer Institute (NCI) Developmental Therapeutics Program Chemical Repository (21). The FDA-approved anticancer drug set is available from the Developmental Therapeutics Program at https://dtp.cancer.gov/organization/dscb/obtaining/. […] The stock solutions were prepared in dimethyl sulfoxide (DMSO, Sigma-Aldrich, St. Louis, MO, cat. D2650), except for the platinum compounds which were prepared in saline (Quality Biological, Gaithersburg, MD, cat. 114-055-101), at 800-fold the tested concentration and stored at -70 degrees C prior to their use. All drugs and investigational agents were tested over a range starting from a high concentration at or near the clinical Cmax and decreasing in half-log increments. If the clinical Cmax for an agent had not been determined, the highest concentration tested was 10 microM, except for SN-38, which was tested at a high concentration of 1 microM.
Cell Culture. All cells were maintained in an incubator at 37 degrees C and 5% CO2 with 95% humidity. The PDC lines were cultured according to standard operating procedures established by the NCI PDMR (https://pdmr.cancer.gov). Table 3 of the manuscript, lists the cell lines along with the number of the three cell types plated to form the mct-spheroids and media for tumor cell growth. After thawing, all PDC lines, except 997537-175-T-J1-PDC and 415267-285-R-J2-PDC, were cultured in Matrigel-coated flasks prepared with a working solution of 1X Ham's F-12 nutrient mix, without supplementation (Thermo Fisher Scientific, cat. 11765054), 100 U/mL penicillin-streptomycin (Thermo Fisher Scientific, cat. 15140122), and 2.5% Matrigel (Corning Inc., Corning, NY, cat. 354248) for the first three passages. The two PDC lines 997537-175-T-J1-PDC and 415267-285-R-J2-PDC were cultured on uncoated flasks. The 857933-349-R-J2-PDC line was cultured in 6C/Colon 1B media containing advanced DMEM/F-12 (Thermo Fisher Scientific, cat. 12634028), 10 mM HEPES (Thermo Fisher Scientific, cat. 15630080), 1X GlutaMAX supplement (Thermo Fisher Scientific, cat. 35050061), 0.1 mg/mL primocin (InvivoGen, San Diego, CA, cat. ant-pm-2), 10% defined fetal bovine serum, heat inactivated (HyClone Laboratories Inc., Logan, UT, cat. SH30070.03HI), 50% L-WRN conditioned media (ATCC, cat. CRL-3276), 1.25 mM N-Acetyl-L-cysteine (Sigma-Aldrich, cat. A9165), 10 mM nicotinamide (Sigma-Aldrich, cat. N0636), 1X B-27 supplement (Thermo Fisher Scientific, cat. 17504044), 1X N-2 supplement (Thermo Fisher Scientific, cat. […]
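Also: spheroids exposed to drugs for 7 days.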
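For viability, T/C in this document: 100% = DMSO vehicle treated spheroids.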

## O=C(Nc1ccc(O)c(NS(=O)(=O)c2ccc(F)cc2)c1)c1ccc(-c2ccccc2)cc1 + Nc1ccc(C#CCN(C(=O)Cc2ncc(C(F)(F)F)cc2C(F)(F)F)c2ccc(F)cc2)nn1
Curve of first compound, second compound 0.0316 µM
  IC50: 7.1 µM
Curve of first compound, second compound 0.1 µM
  IC50: 4.79 µM
Curve of first compound, second compound 0.316 µM
  IC50: 7.55 µM
Curve of first compound, second compound 1 µM
  IC50: 8.49 µM
Curve of first compound, second compound 3.16 µM
  IC50: 9.09 µM
Curve of first compound, second compound 10 µM
  IC50: > 10 µM
Second compound 0.0316 µM, first compound 0.0316 µM
  viability, T/C: 79.4%
Second compound 0.0316 µM, first compound 0.1 µM
  viability, T/C: 95.7%
Second compound 0.0316 µM, first compound 0.316 µM
  viability, T/C: 92.9%
Second compound 0.0316 µM, first compound 1 µM
  viability, T/C: 77.1%
Second compound 0.0316 µM, first compound 3.16 µM
  viability, T/C: 84.1%
Second compound 0.0316 µM, first compound 10 µM
  viability, T/C: 35.6%
Second compound 0.1 µM, first compound 0.0316 µM
  viability, T/C: 104%
Second compound 0.1 µM, first compound 0.1 µM
  viability, T/C: 94.1%
Second compound 0.1 µM, first compound 0.316 µM
  viability, T/C: 100%
Second compound 0.1 µM, first compound 1 µM
  viability, T/C: 111%
Second compound 0.1 µM, first compound 3.16 µM
  viability, T/C: 59.8%
Second compound 0.1 µM, first compound 10 µM
  viability, T/C: 32.7%
Second compound 0.316 µM, first compound 0.0316 µM
  viability, T/C: 88.2%
Second compound 0.316 µM, first compound 0.1 µM
  viability, T/C: 134%
Second compound 0.316 µM, first compound 0.316 µM
  viability, T/C: 97.6%
Second compound 0.316 µM, first compound 1 µM
  viability, T/C: 89.9%
Second compound 0.316 µM, first compound 3.16 µM
  viability, T/C: 93.1%
Second compound 0.316 µM, first compound 10 µM
  viability, T/C: 36.7%
Second compound 1 µM, first compound 0.0316 µM
  viability, T/C: 98.1%
Second compound 1 µM, first compound 0.1 µM
  viability, T/C: 74.2%
Second compound 1 µM, first compound 0.316 µM
  viability, T/C: 133%
Second compound 1 µM, first compound 1 µM
  viability, T/C: 117%
Second compound 1 µM, first compound 3.16 µM
  viability, T/C: 92.8%
Second compound 1 µM, first compound 10 µM
  viability, T/C: 42.9%
Second compound 3.16 µM, first compound 0.0316 µM
  viability, T/C: 114%
Second compound 3.16 µM, first compound 0.1 µM
  viability, T/C: 84.7%
Second compound 3.16 µM, first compound 0.316 µM
  viability, T/C: 98.4%
Second compound 3.16 µM, first compound 1 µM
  viability, T/C: 94.4%
Second compound 3.16 µM, first compound 3.16 µM
  viability, T/C: 67.4%
Second compound 3.16 µM, first compound 10 µM
  viability, T/C: 48.8%
Second compound 10 µM, first compound 0.0316 µM
  viability, T/C: 78.7%
Second compound 10 µM, first compound 0.1 µM
  viability, T/C: 78.4%
Second compound 10 µM, first compound 0.316 µM
  viability, T/C: 79%
Second compound 10 µM, first compound 1 µM
  viability, T/C: 96.5%
Second compound 10 µM, first compound 3.16 µM
  viability, T/C: 76%
Second compound 10 µM, first compound 10 µM
  viability, T/C: 53.1%

## Nc1ccn(C2OC(CO)C(O)C2(F)F)c(=O)n1 (stereo not given)
Compound 0.0316 µM
  viability, T/C: 26% and 34.1% and 24.7%
Compound 0.1 µM
  viability, T/C: 4.77% and 7.08% and 7.51%
Compound 0.316 µM
  viability, T/C: 5.46% and 6.51% and 7.23%
Compound 1 µM
  viability, T/C: 6.12% and 6.87% and 8.28%
Compound 3.16 µM
  viability, T/C: 4.43% and 9.96% and 4.73%
Compound 10 µM
  viability, T/C: 1.87% and 3.82% and 1.78%
Curve of compound
  IC50: < 0.0316 µM

## COc1cc2cc(C(=O)CCC(=O)O)sc2cc1OC
Compound 0.0316 µM
  viability, T/C: 75.1% and 90.9% and 96.1%
Compound 0.1 µM
  viability, T/C: 84.1% and 72% and 94.5%
Compound 0.316 µM
  viability, T/C: 85.4% and 111% and 76.8%
Compound 1 µM
  viability, T/C: 88.2% and 64.1% and 113%
Compound 3.16 µM
  viability, T/C: 96% and 104% and 75.2%
Compound 10 µM
  viability, T/C: 95.3% and 89.2% and 61.4%
Curve of compound
  IC50: > 10 µM

## Cn1ncnc1[C@H]1c2n[nH]c(=O)c3cc(F)cc(c23)N[C@@H]1c1ccc(F)cc1
Compound 0.000316 µM
  viability, T/C: 118% and 108% and 103%
Compound 0.001 µM
  viability, T/C: 82.7% and 80.6% and 106%
Compound 0.00316 µM
  viability, T/C: 69.9% and 79.6% and 106%
Compound 0.01 µM
  viability, T/C: 104% and 80% and 82.1%
Compound 0.0316 µM
  viability, T/C: 87.1% and 53.5% and 66.7%
Compound 0.1 µM
  viability, T/C: 65.3% and 44.1% and 65.5%
Curve of compound
  IC50: > 0.1 µM and 0.0619 µM

## C=CC(=O)N1CCN(c2nc(=O)n(-c3c(C)ccnc3C(C)C)c3nc(-c4c(O)cccc4F)c(F)cc23)C(C)C1 (stereo not given)
Compound 0.0316 µM
  viability, T/C: 127% and 82.1% and 87.4%
Compound 0.1 µM
  viability, T/C: 72.6% and 95.5% and 105%
Compound 0.316 µM
  viability, T/C: 121% and 63.8% and 132%
Compound 1 µM
  viability, T/C: 101% and 104% and 100%
Compound 3.16 µM
  viability, T/C: 102% and 93.9% and 110%
Compound 10 µM
  viability, T/C: 120% and 102% and 100%
Curve of compound
  IC50: > 10 µM
